Results as given in patent US12617752B2, “Rapidly metabolized lipid compound” (Beijing Jitai Life Sciences Ltd, priority 2023, dated 2026).

Assays:
[1] = Particle size and PDI of lipid nanoparticles by dynamic light scattering; assay type: physicochemical; conditions: lipid nanoparticles with luciferase mRNA; ionizable lipid/cholesterol/DSPC/DMG-PEG2000 50/38.5/10/1.5 mol%
Protocol: (§1) Lipid nanoparticles were prepared by (1) dissolving and mixing ionizable lipid compounds, cholesterol, phospholipids and polyethylene glycolated lipids in ethanol at (molar percentages) 50%, 38.5%, 10% and 1.5%, respectively; (2) dissolving the mRNA active ingredient in 25 mM sodium acetate solution (pH=4.5); (3) using an automated high-throughput microfluidic system to mix the organic phase containing the lipid mixture and the aqueous phase containing the mRNA component in the flow ratio range of 1:1 to 1:4 at a mixing speed of 10 mL/min to 18 mL/min; (4) the prepared lipid nanoparticles (N/P ratio=6) were diluted with phosphate buffer solution and the nanoparticle solutions were ultrafiltered to the original preparation volume using ultrafiltration tubes (purchased from Millipore) with a cut-off molecular weight of 30 kDa; and (5) the obtained nanoparticles were filtered through a sterile 0.2 μm filter membrane and then stored in a sealed glass vial at low temperature.
(§2) The particle size and particle size dispersity index (PDI) of the prepared lipid nanoparticles were measured using a Zetasizer Pro (purchased from Malvern Instruments Ltd) and a DynaPro NanoStar (purchased from Wyatt) dynamic light scattering instrument. The degree of RNA encapsulation by lipid nanoparticles was characterized by the Encapsulation Efficiency %, which reflects the degree of binding of lipid nanoparticles to RNA fragments. This parameter was measured by the method of Quant-it™ RiboGreen RNA Assay (purchased from Invitrogen). Lipid nanoparticle samples were diluted in TE buffer (10 mM Tris-HCl, 1 mM EDTA, pH=7.5). A portion of the sample solution was removed, to which 0.5% Triton (Triton X-100) was added, and then allowed to stand at 37° C. for 30 minutes. Immediately after the addition of RIBOGREEN® reaction solution, the fluorescence values were read on a Varioskan LUX multifunctional microplate reader (purchased from Thermofisher) at 485 nm for absorption and 528 nm for emission to give the encapsulation efficiency values.

[2] = Encapsulation efficiency of lipid nanoparticles (Quant-it RiboGreen RNA Assay); assay type: physicochemical; conditions: lipid nanoparticles with luciferase mRNA
Protocol: as §1, §2

C57BL/6 mice = test: In vivo delivery of luciferase mRNA lipid nanoparticles in mice (bioluminescence imaging); conditions: intravenous, single dose 0.5 mg/kg luciferase mRNA
Protocol: The delivery effect and safety of nanoparticles encapsulated with luciferase mRNA (Trilink, L-7202) in mice were evaluated. The test mice were SPF-grade C57BL/6 mice, female, 6-8 weeks old, weighing 18-22 g, and were purchased from SPF (Beijing) Biotechnology Co., Ltd. All animals were acclimatized for more than 7 days prior to the experiment, and had free access to food and water during the experiment. The conditions include alternating light and dark for 12/12 h, the indoor temperature of 20-26° C. and the humidity of 40-70%. The mice were randomly grouped. The lipid nanoparticles encapsulated with luciferase mRNA prepared above were injected into mice by intravenous administration at a single dose of 0.5 mg/kg mRNA, and the mice were subjected to in vivo bioluminescence assay using a Small Animal In Vivo Imaging System (IVIS LUMINA III, purchased from PerkinElmer) at 6 h after administration. The assay was performed as follows: D-luciferin solution was prepared in saline at a concentration of 15 mg/mL, and each mouse was given the substrate by intraperitoneal injection. At ten minutes after administration of the substrate, the mice were anesthetized in an anesthesia chamber with isoflurane at a concentration of 2.5%. The anesthetized mice were placed in IVIS for fluorescence imaging, and data acquisition and analysis were performed on the concentrated distribution area of fluorescence.
The in vivo delivery efficiency of lipid nanoparticle carriers was expressed as the mean values of fluorescence intensity and total photon count in different animals within the same subject group, as shown in Table 5-Table 11. Higher values of fluorescence intensity and total photon count indicate higher in vivo delivery efficiency of this mRNA fragment by lipid nanoparticles. The lipid nanoparticles containing the cationic lipids of the present disclosure have good in vivo delivery efficiency.

## CCCCCCCCCOC(=O)OCCCCCCN(CCCCO)CCCCCCC(C)(C)C(=O)OCCCC(CCCCC)CCCCC [39a]
[1]
  Particle size (nm): 144.83 nm
  Particle-size distribution (PDI): 0.08
[2]
  Encapsulation efficiency (%): 93.59%
C57BL/6 mice
  Total photon count in vivo at 6 hours after administration (Total Flux): 2.24E+10

## CCCCCCCCCOC(=O)C(C)(C)CCCCCCN(CCO)CCCCCCOC(=O)OCC(CCCCCCC)CCCCCCC [40a]
[1]
  Particle size (nm): 120.90 nm
  Particle-size distribution (PDI): 0.18
[2]
  Encapsulation efficiency (%): 95.08%
C57BL/6 mice
  Total photon count in vivo at 6 hours after administration (Total Flux): 2.03E+11

## CCCCCCCCCCC(=O)OCC(C)(C)CCCCCN(CCCCCCCC(=O)OC(CCCCCCCCC)CCCCCCCCC)C(=O)SCCCCN(C)C [40b]
[1]
  Particle size (nm): 97.10 nm
  Particle-size distribution (PDI): 0.11
[2]
  Encapsulation efficiency (%): 96.74%
C57BL/6 mice
  Total photon count in vivo at 6 hours after administration (Total Flux): 3.70E+10

## CCCCCCCCCOC(=O)C(C)(C)CCCCCCN(CCO)CCCCCCOC(=O)OCCC(CCCCCC)CCCCCC [41a]
[1]
  Particle size (nm): 114.03 nm
  Particle-size distribution (PDI): 0.13
[2]
  Encapsulation efficiency (%): 94.51%
C57BL/6 mice
  Total photon count in vivo at 6 hours after administration (Total Flux): 1.11E+11

## CCCCCCCCCOC(=O)C(C)(C)CCCCCCN(CCO)CCCCCCOC(=O)OCCCC(CCCCC)CCCCC [42a]
[1]
  Particle size (nm): 104.13 nm
  Particle-size distribution (PDI): 0.17
[2]
  Encapsulation efficiency (%): 95.54%
C57BL/6 mice
  Total photon count in vivo at 6 hours after administration (Total Flux): 3.47E+10

## CCCCCCCCCOC(=O)C(C)(C)CCCCCCN(CCO)CCCCCCOC(=O)OCCCCC(CCCC)CCCC [43a]
[1]
  Particle size (nm): 105.63 nm
  Particle-size distribution (PDI): 0.15
[2]
  Encapsulation efficiency (%): 97.03%
C57BL/6 mice
  Total photon count in vivo at 6 hours after administration (Total Flux): 2.23E+10

## CCCCCCCCCC(=O)OCC1(CCCCCN(CCCCCCCC(=O)OCC(CCCCCCC)CCCCCCC)C(=O)SCCCN(C)C)CC1 [43b]
[1]
  Particle size (nm): 121.89 nm
  Particle-size distribution (PDI): 0.08
[2]
  Encapsulation efficiency (%): 95.26%
C57BL/6 mice
  Total photon count in vivo at 6 hours after administration (Total Flux): 1.29E+10

## CCCCCCCCCOC(=O)OCCCCCCN(CCO)CCCCC(C)(C)CCC(=O)OCC(CCCCCCC)CCCCCCC [44a]
[1]
  Particle size (nm): 92.67 nm
  Particle-size distribution (PDI): 0.20
[2]
  Encapsulation efficiency (%): 96.84%
C57BL/6 mice
  Total photon count in vivo at 6 hours after administration (Total Flux): 1.06E+11

## CCCCCCCCCC(=O)OCC1(CCCCCN(CCCCCCCC(=O)OCC(CCCCCCC)CCCCCCC)C(=O)SCCCCN(C)C)CC1 [44b]
[1]
  Particle size (nm): 92.63 nm
  Particle-size distribution (PDI): 0.15
[2]
  Encapsulation efficiency (%): 97.45%
C57BL/6 mice
  Total photon count in vivo at 6 hours after administration (Total Flux): 1.16E+10

## CCCCCCCCCOC(=O)CC(C)(C)CCCCCN(CCO)CCCCCCOC(=O)OCC(CCCCCCC)CCCCCCC [45a]
[1]
  Particle size (nm): 114.73 nm
  Particle-size distribution (PDI): 0.15
[2]
  Encapsulation efficiency (%): 94.63%
C57BL/6 mice
  Total photon count in vivo at 6 hours after administration (Total Flux): 1.22E+11

## CCCCCCCCCOC(=O)CCC(C)(C)CCCCN(CCO)CCCCCCOC(=O)OCC(CCCCCCC)CCCCCCC [46a]
[1]
  Particle size (nm): 110.83 nm
  Particle-size distribution (PDI): 0.16
[2]
  Encapsulation efficiency (%): 93.03%
C57BL/6 mice
  Total photon count in vivo at 6 hours after administration (Total Flux): 9.06E+10

## CCCCCCCCCCC(=O)OCC(C)(C)CCCCCN(CCCCCCOC(=O)OC(CCCCCCCCC)CCCCCCCCC)C(=O)SCCCCN(C)C [46b]
[1]
  Particle size (nm): 98.91 nm
  Particle-size distribution (PDI): 0.09
[2]
  Encapsulation efficiency (%): 97.78%
C57BL/6 mice
  Total photon count in vivo at 6 hours after administration (Total Flux): 2.44E+10

## CCCCCCCCCOC(=O)CCCCC(C)(C)CCN(CCO)CCCCCCOC(=O)OCC(CCCCCCC)CCCCCCC [47a]
[1]
  Particle size (nm): 104.47 nm
  Particle-size distribution (PDI): 0.21
[2]
  Encapsulation efficiency (%): 93.23%
C57BL/6 mice
  Total photon count in vivo at 6 hours after administration (Total Flux): 3.10E+10

## CCCCCCCCCC(=O)OCC(C)(C)CCCCCN(CCCCCCOC(=O)OCC(CCCCCCC)CCCCCCC)C(=O)SCCCN(C)C [47b]
[1]
  Particle size (nm): 122.40 nm
  Particle-size distribution (PDI): 0.07
[2]
  Encapsulation efficiency (%): 97.27%
C57BL/6 mice
  Total photon count in vivo at 6 hours after administration (Total Flux): 2.84E+10

## CCCCCCCCCCOC(=O)OCCCCCCN(CCO)CCCCCCC(C)(C)C(=O)OC(CCCCCCCCC)CCCCCCCCC [48a]
[1]
  Particle size (nm): 81.22 nm
  Particle-size distribution (PDI): 0.16
[2]
  Encapsulation efficiency (%): 96.13%
C57BL/6 mice
  Total photon count in vivo at 6 hours after administration (Total Flux): 8.16E+10

## CCCCCCCCCCCOC(=O)OCCCCCCN(CCO)CCCCCCC(C)(C)C(=O)OC(CCCCCCCCCC)CCCCCCCCCC [49a]
[1]
  Particle size (nm): 100.56 nm
  Particle-size distribution (PDI): 0.14
[2]
  Encapsulation efficiency (%): 94.85%
C57BL/6 mice
  Total photon count in vivo at 6 hours after administration (Total Flux): 2.28E+10

## CCCCCCCC(CCCCCCC)COC(=O)CCCCC(C)(C)CCN(CCO)CCCCCCOC(=O)OCC(CCCCCCC)CCCCCCC [50a]
[1]
  Particle size (nm): 78.03 nm
  Particle-size distribution (PDI): 0.12
[2]
  Encapsulation efficiency (%): 98.67%
C57BL/6 mice
  Total photon count in vivo at 6 hours after administration (Total Flux): 2.86E+10

## CCCCCCCCOC(=O)OCC(C)(C)CCCCCN(CCCCCCOC(=O)CC(CCCCCCCC)CCCCCCCC)C(=O)SCCCCN(C)C [50b]
[1]
  Particle size (nm): 98.36 nm
  Particle-size distribution (PDI): 0.13
[2]
  Encapsulation efficiency (%): 98.50%
C57BL/6 mice
  Total photon count in vivo at 6 hours after administration (Total Flux): 1.01E+10

## CCCCCCCCCOC(=O)CCCCCCCN(CCO)CCCCC(C)(C)COC(=O)OCC(CCCCCCC)CCCCCCC [51a]
[1]
  Particle size (nm): 92.08 nm
  Particle-size distribution (PDI): 0.15
[2]
  Encapsulation efficiency (%): 94.81%
C57BL/6 mice
  Total photon count in vivo at 6 hours after administration (Total Flux): 3.11E+10

## CCCCCCCCCC(=O)OCC(C)(C)CCCCCN(CCO)CCCCCCCC(=O)OC(CCCCCCCCC)CCCCCCCCC [51b]
[1]
  Particle size (nm): 91.96 nm
  Particle-size distribution (PDI): 0.12
[2]
  Encapsulation efficiency (%): 95.92%
C57BL/6 mice
  Total photon count in vivo at 6 hours after administration (Total Flux): 7.60E+10

## CCCCCCCCCSC(=O)CCCCCCCN(CCO)CCCCCCC(C)(C)C(=O)OC(CCCCCCCC)CCCCCCCC [52a]
[1]
  Particle size (nm): 79.40 nm
  Particle-size distribution (PDI): 0.09
[2]
  Encapsulation efficiency (%): 93.30%
C57BL/6 mice
  Total photon count in vivo at 6 hours after administration (Total Flux): 2.58E+10

## CCCCCCCCCC(=O)OCC(C)(C)CCCCCN(CCCCO)CCCCCCCC(=O)OC(CCCCCCCCC)CCCCCCCCC [52b]
[1]
  Particle size (nm): 105.97 nm
  Particle-size distribution (PDI): 0.06
[2]
  Encapsulation efficiency (%): 90.84%
C57BL/6 mice
  Total photon count in vivo at 6 hours after administration (Total Flux): 1.01E+11

## CCCCCCCCCCCSC(=O)CCCCCN(CCO)CCCCCCC(C)(C)C(=O)OC(CCCCCCCC)CCCCCCCC [53a]
[1]
  Particle size (nm): 124.00 nm
  Particle-size distribution (PDI): 0.23
[2]
  Encapsulation efficiency (%): 90.96%
C57BL/6 mice
  Total photon count in vivo at 6 hours after administration (Total Flux): 9.04E+10

## CCCCCCCCCC(=O)OCC1(CCCCCN(CCO)CCCCCCCC(=O)OC(CCCCCCCCC)CCCCCCCCC)CC1 [53b]
[1]
  Particle size (nm): 125.03 nm
  Particle-size distribution (PDI): 0.42
[2]
  Encapsulation efficiency (%): 91.92%
C57BL/6 mice
  Total photon count in vivo at 6 hours after administration (Total Flux): 1.00E+11

## CCCCCCC#CCOC(=O)CCCCCCCN(CCO)CCCCCCC(C)(C)C(=O)OC(CCCCCCCC)CCCCCCCC [54a]
[1]
  Particle size (nm): 87.37 nm
  Particle-size distribution (PDI): 0.14
[2]
  Encapsulation efficiency (%): 91.34%
C57BL/6 mice
  Total photon count in vivo at 6 hours after administration (Total Flux): 1.32E+10

## CCCCCCCCCCC(=O)OCCC(C)(C)CCCCN(CCO)CCCCCCCC(=O)OC(CCCCCCCCC)CCCCCCCCC [54b]
[1]
  Particle size (nm): 81.37 nm
  Particle-size distribution (PDI): 0.17
[2]
  Encapsulation efficiency (%): 96.69%
C57BL/6 mice
  Total photon count in vivo at 6 hours after administration (Total Flux): 5.71E+10
